Laboratory results reported in the supplement of paper PMC10307832.

Experiments:
Test in all cases: relative viability (nuclei count vs DMSO), 5 days (fraction); higher = more cells survive
RAF265 + Trametinib = compound: Cn1c(Nc2ccc(C(F)(F)F)cc2)nc2cc(Oc3ccnc(-c4ncc(C(F)(F)F)[nH]4)c3)ccc21 [RAF265] + CC(=O)Nc1cccc(-n2c(=O)n(C3CC3)c(=O)c3c(Nc4ccc(I)cc4F)n(C)c(=O)c(C)c32)c1 [Trametinib] (partner 0.02 µM)
How it was run: (§1)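 After 5 days of treatment, lung cancer cells in 1536-well plates were fixed and stained in a single step (final 0.05% Triton X-100, 1% formaldehyde, 1 ug/ml Hoechst) and their nuclei counted on 4× images. Treatment had been applied by pin tool the day after seeding as one drug alone or as a fixed anchor-drug dose with five library-drug doses (not always all listed) in √10 steps. Relative viability is the nuclei count of treated wells divided by that of vehicle wells, and values are medians of duplicate plates.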

IPA-3 + Pictilisib = compound: C1=CC=C2C(=C1)C=CC(=C2SSC3=C(C=CC4=CC=CC=C43)O)O [IPA-3] + CS(=O)(=O)N1CCN(Cc2cc3nc(-c4cccc5[nH]ncc45)nc(N4CCOCC4)c3s2)CC1 [Pictilisib] (partner 1 µM)
How it was run: as §1

IPA-3 + Luminespib = compound: C1=CC=C2C(=C1)C=CC(=C2SSC3=C(C=CC4=CC=CC=C43)O)O [IPA-3] + CCNC(=O)c1noc(-c2cc(C(C)C)c(O)cc2O)c1-c1ccc(CN2CCOCC2)cc1 [Luminespib] (partner 0.01 µM)
How it was run: as §1

IPA-3 + Bortezomib = compound: C1=CC=C2C(=C1)C=CC(=C2SSC3=C(C=CC4=CC=CC=C43)O)O [IPA-3] + CC(C)C[C@H](NC(=O)[C@H](Cc1ccccc1)NC(=O)c1cnccn1)B(O)O [Bortezomib] (partner 0.002 µM)
How it was run: as §1

| Cell Line | relative viability (RAF265 + Trametinib; first compound 0.01 µM) | relative viability (RAF265 + Trametinib; first compound 0.03162 µM) | relative viability (RAF265 + Trametinib; first compound 0.1 µM) | relative viability (RAF265 + Trametinib; first compound 0.3162 µM) | relative viability (RAF265 + Trametinib; first compound 1 µM) | relative viability (IPA-3 + Pictilisib; first compound 0.2 µM) | relative viability (IPA-3 + Pictilisib; first compound 0.6325 µM) | relative viability (IPA-3 + Pictilisib; first compound 2 µM) | relative viability (IPA-3 + Pictilisib; first compound 6.325 µM) | relative viability (IPA-3 + Pictilisib; first compound 20 µM) | relative viability (IPA-3 + Luminespib; first compound 0.2 µM) | relative viability (IPA-3 + Luminespib; first compound 0.6325 µM) | relative viability (IPA-3 + Luminespib; first compound 2 µM) | relative viability (IPA-3 + Luminespib; first compound 6.325 µM) | relative viability (IPA-3 + Luminespib; first compound 20 µM) | relative viability (IPA-3 + Bortezomib; first compound 0.2 µM) | relative viability (IPA-3 + Bortezomib; first compound 0.6325 µM) | relative viability (IPA-3 + Bortezomib; first compound 2 µM) | relative viability (IPA-3 + Bortezomib; first compound 6.325 µM) | relative viability (IPA-3 + Bortezomib; first compound 20 µM) |
| --- | --- | --- | --- | --- | --- | --- | --- | --- | --- | --- | --- | --- | --- | --- | --- | --- | --- | --- | --- | --- |
| NCI-H2085 | 0.45 | 0.524 | 0.514 | 0.511 | 0.545 | 0.44 | 0.44 | 0.447 | 0.426 | 0.535 | 0.475 | 0.411 | 0.502 | 0.432 | 0.5 | 1.19 | 0.99 | 1.01 | 0.937 | 1.27 |
| NCI-H460 | 0.238 | 0.23 | 0.133 | 0.156 | 0.0601 | 0.479 | 0.321 | 0.36 | 0.408 | 0.557 | 0.0346 | 0.0286 | 0.0329 | 0.0351 | 0.0331 | 1.64 | 1 | 1.24 | 1.07 | 1.05 |
| Calu-6 | – | – | – | – | – | 1.06 | 0.872 | 0.933 | 0.736 | 0.848 | – | – | – | – | – | 1.02 | 1.04 | 0.895 | 0.959 | 0.837 |
| RERF-LC-KJ | 0.877 | 0.764 | 0.867 | 0.638 | 0.546 | 0.626 | 0.501 | 0.537 | 0.38 | 0.486 | 1.46 | 1.27 | 1.29 | 1.39 | 1.14 | 1.33 | 1.36 | 1.12 | 1.25 | 1.18 |
| LCLC-103H | 0.679 | 0.689 | 0.609 | 0.638 | 0.465 | 0.572 | 0.596 | 0.533 | 0.578 | 0.705 | 1.09 | 1 | 0.916 | 0.929 | 0.926 | 1.13 | 1.06 | 1.17 | 1.17 | 1.18 |
| HCC-15 | 0.346 | 0.403 | 0.379 | 0.338 | 0.21 | 0.853 | 0.783 | 0.724 | 0.776 | 0.841 | 0.625 | 0.209 | 0.253 | 0.514 | 0.417 | 1.34 | 0.99 | 0.838 | 1.02 | 1.21 |
| NCI-H1563 | – | – | – | – | – | 0.68 | 0.62 | 0.622 | 0.694 | 0.59 | 0.514 | 0.526 | 0.532 | 0.512 | 0.437 | 1.03 | 0.689 | 0.801 | 0.996 | 0.846 |
| NCI-H2342 | 0.75 | 0.715 | 0.786 | 0.698 | 0.682 | – | – | – | – | – | 0.701 | 0.677 | 0.747 | 0.802 | 0.765 | – | – | – | – | – |
| NCI-H1299 | – | – | – | – | – | 0.905 | 0.858 | 0.834 | 0.654 | 0.687 | – | – | – | – | – | 0.995 | 1.01 | 0.996 | 0.996 | 1 |
| LK-2 | 0.721 | 0.628 | 0.787 | 0.799 | 0.53 | 0.47 | 0.572 | 0.708 | 0.646 | 0.695 | 0.179 | 0.193 | 0.17 | 0.189 | 0.222 | – | – | – | – | – |
| HCC-78 | 0.79 | 0.913 | 0.728 | 0.705 | 0.537 | 0.23 | 0.218 | 0.229 | 0.229 | 0.282 | – | – | – | – | – | 0.624 | 0.359 | 0.555 | 0.479 | 0.675 |
| NCI-H358 | 0.152 | 0.115 | 0.116 | 0.127 | 0.129 | 0.35 | 0.347 | 0.372 | 0.372 | 0.291 | 0.535 | 0.313 | 0.265 | 0.385 | 0.255 | – | – | – | – | – |
| SK-MES-1 | 0.601 | 0.531 | 0.443 | 0.317 | 0.285 | 0.415 | 0.357 | 0.321 | 0.34 | 0.403 | 0.753 | 0.691 | 0.831 | 0.782 | 0.808 | – | – | – | – | – |
| SW 900 | 0.83 | 0.994 | 0.836 | 0.679 | 0.52 | – | – | – | – | – | 0.211 | 0.184 | 0.165 | 0.181 | 0.212 | – | – | – | – | – |
| EBC-1 | – | – | – | – | – | 0.434 | 0.316 | 0.354 | 0.265 | 0.269 | – | – | – | – | – | 0.488 | 0.548 | 0.546 | 0.546 | 0.581 |
| NCI-H1395 | 1.12 | 0.933 | 1.1 | 0.968 | 0.685 | 0.607 | 0.61 | 0.441 | 0.651 | 0.668 | 0.726 | 0.671 | 0.6 | 0.601 | 0.699 | – | – | – | – | – |
| IA-LM | – | – | – | – | – | 0.397 | 0.246 | 0.349 | 0.315 | 0.442 | – | – | – | – | – | 0.883 | 0.808 | 0.842 | 0.703 | 0.546 |
| ABC-1 | – | – | – | – | – | 0.863 | 0.698 | – | 0.803 | 0.75 | 0.723 | – | 0.573 | – | 0.29 | 0.297 | 0.345 | – | 0.295 | 0.257 |
| NCI-H1703 | – | – | – | – | – | 0.261 | 0.21 | 0.25 | 0.253 | 0.246 | – | – | – | – | – | 0.265 | 0.288 | 0.463 | 0.579 | 0.445 |
| NCI-H2170 | 0.928 | 0.86 | 0.792 | 0.666 | 0.56 | 0.324 | 0.302 | 0.303 | 0.303 | 0.346 | 0.691 | 0.574 | 0.772 | 0.748 | 0.683 | – | – | – | – | – |
| NCI-H1793 | 0.403 | 0.44 | 0.303 | 0.232 | 0.237 | 0.318 | 0.352 | 0.314 | 0.367 | 0.418 | 0.192 | 0.381 | 0.14 | 0.462 | 0.16 | – | – | – | – | – |
